Data on 1 compound can be found in ChEMBL document CHEMBL1158247, “Isolation of Isodrimenediol, a Possible Intermediate of Drimane Biosynthesis from Polyporus arcularius” (1996).

One assay deals with Staphylococcus aureus. The experiment in a line: Antimicrobial activity against Staphylococcus aureus SG511 by agar diffusion method. The format is functional. For orientation: Agar diffusion results depend on both activity and mobility in agar.
The test system of assay [1] is Sporobolomyces salmonicolor. The assay is described as follows: Antimicrobial activity against Sporobolomyces salmonicolor 549 by agar diffusion method. The format is functional.

A word on the MIC: it is the lowest concentration found to suppress growth. A low value points to a more susceptible organism.

Structures are written as SMILES. ≈ marks a conversion by molar mass, not a printed value.

For the compound `C=C1CC[C@H]2C(C)(C)[C@@H](O)CC[C@]2(C)[C@H]1CO` [ISODRIMENEDIOL], the results for the minimum inhibitory concentration (MIC) (in the assay on Staphylococcus aureus; in assay [1]) were 10 µg/mL (≈ 42 µM) and 5 µg/mL (≈ 21 µM), respectively.
